Converted amounts (≈) assume the structure as drawn. Read-outs that look alike come from different tables or passages of the source.
Columns and labels:
[1] = system: S. aureus ATCC 25923; assay: broth microdilution antimicrobial assay (MIC, IC50); format: cell-based; conditions: Staphylococcus aureus, ATCC25923; for IC50: S. aureus ATCC 25923, 24 h, OD630, mean value with standard deviation, read-out: IC50 ATCC 25923; for MIC: broth microdilution, 24 h, range 100–0.19 µM
Excerpt: (§1) Reference bacterial strains of Staphylococcus aureus (ATCC 25923) and Escherichia coli (ATCC 25922) were used in this study as Gram-positive and negative models, respectively. These reference strains were purchased from the American Type Culture Collection (ATCC, Manassas, VA, USA). Clinical isolates, identified by MALDI-TOF MS (Bruker Daltonik, GmbH, Bremen, Germany), were profiled for their antibiotic susceptibility by using the Vitek2 semiautomated system (bioMérieux, Craponne, France) and according to EUCAST (Version 12, 2022, http://www.eucast.org (accessed on 1 January 2022)). The bacterial cultures were routinely grown on 5% blood agar plates (Biolife Italiana S.r.l., Milan, Italy) and were freshly used in the antibacterial assays.
(§2) The minimum inhibitory concentrations (MICs) were determined using the microbroth dilution method in microtiter plates according to the Clinical and Laboratory Standards Institute (CLSI) guidelines. In short, microbial inocula were prepared at 0.5 McFarland in PBS and, subsequently, bacterial suspensions were diluted 1:200 in Mueller–Hinton broth (Sigma-Aldrich, St. Louis, MO, USA), while fungal inoculum was diluted 1:20 in RPMI-1640 medium (Gibco®, ThermoFisher Scientific Inc., Waltham, MA, USA), containing glucose 2%, 0.3% levo-glutamine buffered to pH 7.0 with 0.165 M 3-(N-morpholino)propanesulfonic acid (MOPS). A total of 100 µL of these microbial suspensions was introduced into a 96-well microplate and incubated with 100 µL of the compounds, two-fold serially diluted in the range of 100–0.19 µM. Positive controls (microbial suspensions in regular media), negative controls (only compounds), solvent controls (microbial suspensions incubated with DMSO dilutions), and the reference drug controls were included in the tests. The plate was incubated at 37 °C for 24 h, and subsequently the optical density at 630 nm (OD630nm) was spectrophotometrically measured. Experiments were performed in triplicate with three biological replicates. In addition to MIC, IC50 values were measured for the active compounds. The values, corresponding to the concentration of the compound giving rise to an inhibition of growth of 50%, were obtained by interpolation on dose–response curves generated by plotting the percentages of growth inhibition, relative to the positive control (set to 100% of growth), as a function of the tested concentrations (on a logarithm scale). Statistical analysis was carried out by using GraphPad Prism version 9.4.1 for Windows (GraphPad Software, San Diego, CA, USA, www.graphpad.com).

[2] = system: E. coli ATCC 25923; assay: broth microdilution antimicrobial assay (MIC); format: cell-based; conditions: Escherichia coli, ATCC25923, 24 h, range 100–0.19 µM
[3] = system: clinical isolates of S. aureus (MRSA); assay: antibiotic susceptibility profiling of clinical isolates (Vitek2, EUCAST); format: cell-based, Staphylococcus aureus; conditions: for Antibiotic-resistance profile, MRSA 3: clinical isolate MRSA 3; for Antibiotic-resistance profile, MRSA 4: clinical isolate MRSA 4; for Antibiotic-resistance profile, MRSA 5: clinical isolate MRSA 5; for Antibiotic-resistance profile, MRSA 1: clinical isolate MRSA 1; for Antibiotic-resistance profile, MRSA 2: clinical isolate MRSA 2; for all read-outs here: key: R = Resistant; S = Susceptible; I = Intermediate
Excerpt: as §1

[4] = system: P. falciparum CQ-sensitive (CQ-S) D10 strain; assay: antiplasmodial drug susceptibility assay (pLDH), CQ-sensitive strain; format: cell-based; conditions: Plasmodium falciparum, read-out: IC50 D10 (CQ-S)
Method: (§3) P. falciparum cultures were carried out according to Trager and Jensen with slight modifications. The CQ-sensitive strain D10 and the CQ-resistant strain W2 were maintained at 5% hematocrit (human A-positive erythrocytes) in RPMI 1640 medium (EuroClone S.p.A, Milan, Italy) with the addition of 1% AlbuMax (Invitrogen, San Diego, California, USA), 0.01% hypoxanthine, 20 mM Hepes, and 2 mM glutamine at 37 °C in a standard gas mixture (1% O2, 5% CO2, and 94% N2). […] Drugs were placed in 96-well flat-bottomed microplates, and serial dilutions were made. Asynchronous cultures with parasitaemia of 1–1.5% and 1% final hematocrit were aliquoted into the plates and incubated for 72 h at 37 °C. Parasite growth was determined spectrophotometrically (OD650nm) by measuring the activity of the parasite lactate dehydrogenase (pLDH), as described in a modified version of Makler’s method in control- and drug-treated cultures. The antiplasmodial activity is expressed as 50% inhibitory concentrations (IC50); each IC50 value is the mean ± standard deviation of at least three separate experiments performed in duplicate.

[5] = system: P. falciparum CQ-resistant (CQ-R) W2 strain; assay: antiplasmodial drug susceptibility assay (pLDH), CQ-resistant strain; format: cell-based; conditions: Plasmodium falciparum, read-out: IC50 W2 (CQ-R)
Method: as §3

[6] = system: C. albicans ATCC 10231; assay: broth microdilution antifungal assay (MIC); format: cell-based; conditions: Candida albicans, ATCC10231, 24 h, range 100–0.19 µM
Method: The reference strain of Candida albicans (ATCC 10231) was used in the present study and maintained on Sabouraud Dextrose Agar (Biolife Italiana S.r.l., Milan, Italy) before the antifungal assays.
as §2

[7] = cell viability and proliferation assay (CCK-8/WST8); format: cell-based; conditions: human, WS1 cells (human-derived fibroblasts, ATCC CRL-1502), mean value with standard deviation
Method: WS1 cells (ATCC CRL-1502) were selected as a model system to investigate the effect of PTZ-quinoline hybrid compounds on human-derived fibroblasts. Briefly, cells were cultured in DMEM-High glucose supplemented with 10% fetal bovine serum (FBS) (Carlo Erba Reagents, Milan, Italy), 100 U/mL penicillin, and 100 µg/mL streptomycin at 37 °C with 5% CO2. For experiments, cells were seeded into 96-well plates at 0.7 × 10^4 cells/well, and incubated at 37 °C for 24 h. […] Cell viability was assessed by a WST8-based assay according to the manufacturer’s instructions (CCK-8, Cell Counting Kit-8, Dojindo Molecular Technologies, Rockville, MD, USA). After 48 h of incubation, culture medium was removed from each well, the monolayer was washed with PBS, and 100 µL of fresh medium containing 10 µL of CCK-8 solution was added. Following a 2 h incubation at 37 °C, the OD450nm was read, and data were expressed as the percentage of cell viability relative to the untreated controls. The CC50 was obtained on the corresponding dose–response curves generated as previously reported for IC50 values. Experiments were carried out in triplicate in three biological replicates.

[8] = P. falciparum D10, 72 h, pLDH, mean value with standard deviation
[9] = P. falciparum W2, 72 h, pLDH, mean value with standard deviation

Compound	MIC [1]	MIC [2]	Antibiotic-resistance profile, MRSA 3 [3]	Antibiotic-resistance profile, MRSA 4 [3]	Antibiotic-resistance profile, MRSA 5 [3]	MIC [6]	CC50 at 48 h [7]	Antibiotic-resistance profile, MRSA 1 [3]	Antibiotic-resistance profile, MRSA 2 [3]	further results
CC1(C)S[C@@H]2[C@H](NC(=O)[C@H](N)c3ccccc3)C(=O)N2[C@H]1C(=O)O [AMP, ampicillin, reference compound]	4.2 µM (≈ 1.47 µg/mL)	67.3 µM (≈ 23.5 µg/mL)	–	–	–	–	–	–	–	IC50 [1]: 2590 ± 130 nM
CCC[C@@H]1C[C@@H](C(=O)N[C@@H]([C@H]2O[C@H](SC)[C@H](O)[C@@H](O)[C@H]2O)[C@H](C)Cl)N(C)C1 [CM, Clindamicyn]	–	–	R	S	S	–	–	–	–	–
CCN(CC)CCCC(C)Nc1ccnc2cc(Cl)ccc12 (centres unmarked) [CQ, chloroquine, reference compound]	–	–	–	–	–	–	–	–	–	IC50 ([4]; D10, 72 h): 25 ± 7 nM; IC50 ([5]; W2, 72 h): 420 ± 103 nM
Clc1ccc2c(N3CCN(CCCN4c5ccccc5Sc5ccccc54)CC3)ccnc2c1 [Compound 1, 10-(3-(4-(7-chloroquinolin-4-yl)piperazin-1-yl)propyl)-10H-phenothiazine]	> 100 µM	> 100 µM	–	–	–	> 100 µM	> 100000 nM	–	–	IC50 [4, 8]: 2520 ± 840 nM; IC50 [5, 9]: 2320 ± 1050 nM
Clc1ccc2c(N3CCN(CCCCN4c5ccccc5Sc5ccccc54)CC3)ccnc2c1 [Compound 2, 10-(4-(4-(7-chloroquinolin-4-yl)piperazin-1-yl)butyl)-10H-phenothiazine]	> 100 µM	> 100 µM	–	–	–	> 100 µM	> 100000 nM	–	–	–
Clc1ccc2c(N3CCN(CCCCCN4c5ccccc5Sc5ccccc54)CC3)ccnc2c1 [Compound 3, 10-(5-(4-(7-chloroquinolin-4-yl)piperazin-1-yl)pentyl)-10H-phenothiazine]	> 100 µM	> 100 µM	–	–	–	> 100 µM	> 100000 nM	–	–	IC50 [4, 8]: 2340 ± 12 nM; IC50 [5, 9]: 990 ± 245 nM
Clc1ccc2c(NCCCCCn3cc(CN4c5ccccc5Sc5ccccc54)nn3)ccnc2c1 [Compound 6a, N-(5-(4-((10H-phenothiazin-10-yl)methyl)-1H-1,2,3-triazol-1-yl)pentyl)-7-chloroquinolin-4-amine]	> 100 µM	> 100 µM	–	–	–	> 100 µM	48300 ± 900 nM	–	–	IC50 [4, 8]: 326 ± 120 nM; IC50 [5, 9]: 377 ± 66 nM
Clc1ccc2c(c1)N(Cc1cn(CCCCCNc3ccnc4cc(Cl)ccc34)nn1)c1ccccc1S2 [Compound 6b, 7-chloro-N-(5-(4-((2-chloro-10H-phenothiazin-10-yl)methyl)-1H-1,2,3-triazol-1-yl)pentyl)quinolin-4-amine]	50 µM (≈ 28.1 µg/mL)	> 100 µM	–	–	–	> 100 µM	34300 ± 520 nM	–	–	IC50 [4, 8]: 602 ± 314 nM; IC50 [5, 9]: 184 ± 93 nM; IC50 [1]: 25000 ± 1760 nM
Clc1ccc2c(-n3cc(CN4c5ccccc5Sc5ccccc54)nn3)ccnc2c1 [Compound 7, 10-((1-(7-chloroquinolin-4-yl)-1H-1,2,3-triazol-4-yl)methyl)-10H-phenothiazine]	> 100 µM	> 100 µM	–	–	–	> 100 µM	> 100000 nM	–	–	–
CC[C@H]1OC(=O)[C@H](C)[C@@H](O[C@H]2C[C@@](C)(OC)[C@@H](O)[C@H](C)O2)[C@H](C)[C@@H](O[C@@H]2O[C@H](C)C[C@H](N(C)C)[C@H]2O)[C@](C)(O)C[C@@H](C)C(=O)[C@H](C)[C@@H](O)[C@]1(C)O [E, Erythromycin]	–	–	R	S	S	–	–	–	–	–
OC(Cn1cncn1)(Cn1cncn1)c1ccc(F)cc1F [FLC, Fluconazole, reference compound]	–	–	–	–	–	0.82 µM (≈ 0.251 µg/mL)	–	–	–	–
CNC(C)C1CCC(N)C(OC2C(N)CC(N)C(OC3OCC(C)(O)C(NC)C3O)C2O)O1 (centres unmarked) [GEN, gentamicin]	6.6 µM (≈ 3.15 µg/mL)	1.03 µM (≈ 0.492 µg/mL)	S	S	S	–	–	S	S	IC50 [1]: 4000 ± 50 nM
C[C@H]1COc2c(N3CCN(C)CC3)c(F)cc3c(=O)c(C(=O)O)cn1c23 [LVX, Levofloxacin]	–	–	R	R	R	–	–	R	R	–
Cc1onc(-c2ccccc2)c1C(=O)N[C@@H]1C(=O)N2[C@@H]1SC(C)(C)[C@@H]2C(=O)O [OX, Oxacillin]	–	–	R	R	R	–	–	R	R	–
CN(C)[C@@H]1C(O)=C(C(N)=O)C(=O)[C@@]2(O)C(O)=C3C(=O)c4c(O)cccc4[C@@](C)(O)[C@H]3C[C@@H]12 [TE, Tetracycline]	–	–	S	S	S	–	–	S	S	–
CN[C@H](CC(C)C)C(=O)N[C@H]1C(=O)N[C@@H](CC(N)=O)C(=O)N[C@H]2C(=O)N[C@H]3C(=O)N[C@H](C(=O)N[C@H](C(=O)O)c4cc(O)cc(O)c4-c4cc3ccc4O)[C@H](O)c3ccc(c(Cl)c3)Oc3cc2cc(c3O[C@@H]2O[C@H](CO)[C@@H](O)[C@H](O)[C@H]2O[C@H]2C[C@](C)(N)[C@H](O)[C@H](C)O2)Oc2ccc(cc2Cl)[C@H]1O [VA, Vancomycin]	–	–	S	S	S	–	–	S	S	–
Penicillin	–	–	R	R	R	–	–	R	R	–
Teicoplanin [TEC]	–	–	S	S	S	–	–	S	S	–
